From ChEMBL document CHEMBL1201862, “PubChem BioAssay data set” (2004)
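The compound was tested at five concentrations on cells cultured in 96-well plates, with a 48-hour exposure period. GI50 = concentration required for 50% inhibition of growth.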 Calls of active or inactive are those of the source. No stated cut-off is given here; in the data, active = GI50 up to about 1.1 µM and inactive = higher.

What was measured:
Experiment in all cases: NCI anticancer screen, dose series, 48 h
[1] = test system: K562
[2] = test system: HOP-18
[3] = test system: NCI-H460
[4] = test system: ACHN
[5] = test system: NCI-H23
[6] = test system: UACC-257
[7] = test system: SN12C
[8] = test system: SNB-19
[9] = test system: 786-0
[10] = test system: SK-OV-3
[11] = test system: OVCAR-8
[12] = test system: CAKI-1
[13] = test system: SR
[14] = test system: MDA-N
[15] = test system: MDA-MB-231
[16] = test system: T47D
[17] = test system: Hs-578T
[18] = test system: DU-145
[19] = test system: PC-3
[20] = test system: BT-549

Measured: GI50

CC1=C(C(=O)Nc2cccc(Cl)c2)C(c2ccc([N+](=O)[O-])cc2)C(C(=O)Nc2cccc(Cl)c2)=C(C)N1
inactive: [1] 24.8 µM | [2] 16.5 µM | [3] 20.1 µM | [4] 25.1 µM | [5] 21.3 µM | [6] 16.7 µM | [7] 22.3 µM | [8] 37.2 µM | [9] 22 µM | [10] 11.9 µM | [11] 30.7 µM

C/C=C/c1cc2c(c(=O)o1)C(=O)[C@@H](O)[C@H](C)O2
inactive: [1] 8.59 µM | [2] 17.5 µM | [3] 21.7 µM | [5] 17 µM | [6] 14.4 µM | [7] 15.4 µM | [12] 17.3 µM | [8] 19.5 µM | [10] 37.6 µM | [11] 16.7 µM

CCCCCCCCCC/C=C/C=O
inactive: [1] > 100 µM | [13] > 100 µM | [2] > 100 µM | [3] > 100 µM | [4] > 100 µM | [5] > 100 µM | [6] > 100 µM | [7] > 100 µM | [8] > 100 µM | [10] > 100 µM | [11] > 100 µM

CC(C)OP(=O)(OC(C)C)c1ccc2c(c1)OCCOCCOCCOCCO2
inactive: [1] > 100 µM | [13] > 100 µM | [14] > 100 µM | [15] > 100 µM | [16] > 100 µM | [3] > 100 µM | [4] > 100 µM | [5] > 100 µM | [17] > 100 µM | [6] > 100 µM | [7] > 100 µM | [18] > 100 µM | [12] > 100 µM | [8] > 100 µM | [9] > 100 µM | [10] > 100 µM | [11] > 100 µM | [19] > 100 µM | [20] > 100 µM

C=CC[N+](CCO)(CCO)CCCCCCCCCCCCCCCCCC
inactive: [1] 2.96 µM | [2] 8.34 µM | [3] 4.05 µM | [5] 12.5 µM | [6] 6.38 µM | [7] 6.78 µM | [12] 4.46 µM | [8] 8.91 µM | [10] 10.9 µM | [11] 9.25 µM
